In patent publication US6492137B1, “Response element compositions and assays employing same” (The Salk Institute for Biological Studies, priority 1989, dated 2002):

Assays:
[1] = biological target: T1, VDR (Homo sapiens, UniProt P11473); assay: ΔSV-CAT reporter cotransfection assay in CV-1 cells with VDR expression plasmid, ±VD3; type: cell-based; design: expressed in transfected cells; host or cells: CV-1 (monkey kidney); settings: VD3 100 nM
T1 sequence (P11473 1-427): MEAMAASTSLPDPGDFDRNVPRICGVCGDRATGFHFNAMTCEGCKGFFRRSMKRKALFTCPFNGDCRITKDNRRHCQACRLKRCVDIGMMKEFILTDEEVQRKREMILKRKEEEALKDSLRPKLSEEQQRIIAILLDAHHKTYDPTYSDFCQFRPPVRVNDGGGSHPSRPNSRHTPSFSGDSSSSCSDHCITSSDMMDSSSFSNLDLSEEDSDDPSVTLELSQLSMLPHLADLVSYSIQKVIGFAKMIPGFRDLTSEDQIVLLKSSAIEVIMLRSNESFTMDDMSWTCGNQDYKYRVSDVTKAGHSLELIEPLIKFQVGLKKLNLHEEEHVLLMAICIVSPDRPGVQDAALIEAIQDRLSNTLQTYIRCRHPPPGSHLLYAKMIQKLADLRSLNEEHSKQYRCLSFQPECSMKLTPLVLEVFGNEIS
Description: Receptor expression plasmids used in the following cotransfection assays have been described previously (pRShTRβ [see Thompson, et al., Proc. Natl. Acad. Sci. U.S.A. 86: 3494-3498 (1989)]; pRShRARα [see Giguere, et al., Nature 330: 624-629 (1987)]; pRShRARβ and pRshRARγ [see Ishikawa, et al., Mol. Endocrinol, 4: 837-844 (1990)]; and pRShVDR, [Schule, et al., Cell 61: 497-504 (1990)]. A basal reporter plasmid ΔSV-CAT was constructed by replacing the TK promoter in TK-CAT [Damm, et al., Nature 339: 593-597 (1989)] with the SphI-HindIII fragment of the SV40 early promoter. All of the recombinant CAT reporter plasmids used herein harbor a single copy of the indicated oligonucleotides at the unique HindIII site upstream of the SV40 promoter. Identity of the inserted oligonucleotides was confirmed by sequencing. To improve production of receptor proteins in COS cells, a new eukaryotic expression vector pCMX was prepared by modifying the plasmid CDM8 [Seed, B., Nature 329: 840-842 (1987)]. The CDM8 was cut with MluI and StuI in order to release the DNA fragment encoding the CMV/T7 promoter, SV40 small t intron/poly A signal, polyoma virus enhancer/origin, and SV40 enhancer/origin. The resulting fragment was ligated to a larger fragment of PvuII-digested PUC19. An internal deletion was introduced between unique BamHI and BclI sites present in the DCM8 portion. […]

[2] = system: F9 teratocarcinoma stem cells; assay: CAT reporter transfection into RA responsive F9 teratocarcinoma stem cells; type: cell-based, mouse; settings: RA 1 μM, 24 hours; no transfected receptor
Procedure: For cotransfection assays, a monkey kidney cell line CV-1 was kept in Dulbecco's modified Eagle's medium (DMEM) supplemented with 10% charcoal-resin double split calf bovine serum. Transfections were performed via calcium-phosphate precipitation method as described by Umesono, et al. in Cell 57: 1139-1146 (1989), with 0.5 μg of a pRS receptor expression plasmid, 1.0 μg of a reporter CAT plasmid, 5 μg of pRAS-βGAL [Umesono, et al., Cell 57: 1139-1146 (1989)] as an internal control, and 8.5 μg of carrier plasmid pUC19. The cells were transfected for 8 hours; after washing the DNA precipitates, the cells were then incubated for an additional 36 hours with or without the ligand (T3, 100 nM; RA, 1 μM; 1,25-(OH)2 vitamin D3, 100 nM). Cell extracts were prepared for βGAL and CAT assays, as described by Umesono, et al., supra. Transfection of F9 teratocarcinoma cells was carried out employing a similar method except the cells were incubated for 12 hours in the presence of the DNA precipitates, and the RA was added at 1 μM for another 24 hours before harvesting the cells. 2, 5, and 4 μg of the reporter, pRAS-βGAL, and pUC19 were used, respectively.
Similarly, when the same set of reporters as in FIG. 4 were transfected into F9 cells, only MHC-R (5-nucleotide spacer) and TREp are potent RAREs. In contrast, its RARE antecedents (MHC-N, MHC+1, MHC-T) are inert.

| Substance | vitamin D3 response (in words) [1] | function as RARE in F9 cells [2] |
| --- | --- | --- |
| GDR-3: identical to DR-3 except half-site changed to AGAACA, a GRE half-site (SEQ ID NO:26) (AGCTTCAGAACAAGGAGAACAGAGAGCT; DNA, backbone not given here; double-stranded DNA response element with agct overhangs, cloned into reporter) | completely inactive | – |
| GDR-4: identical to DR-4 except half-site changed to AGAACA, a GRE half-site (SEQ ID NO:28) (AGCTTCAGAACACAGGAGAACAGAGAGCT; DNA, backbone not given here; double-stranded DNA response element with agct overhangs, cloned into reporter) | completely inactive | – |
| MHC-N: 23-nucleotide core of the wild-type sequence (MHC-TRE) (SEQ ID NO:14) (AGCTGGAGGTGACAGGAGGACAGCAAGCT; DNA, backbone not given here; further chemistry not fully specified) | – | inert |
| TREp: optimized palindromic rat growth hormone TRE (SEQ ID NO:10) (AGCTTCAGGTCATGACCTGAGAGCT; DNA, backbone not given here; double-stranded response element with agct overhangs, cloned into reporter plasmid) [reference compound] | – | potent RAREs |
